Values of other authors in patent US10201585B2, “Methods for treatment of atherosclerosis” (Stealth Peptides International, Inc., priority 2012, dated 2019).

Experiments:
hepatitis C virus (HCV) = conditions: alone and with interferon; cited from earlier work
[1] = test system: spinal cord injury in rodents; conditions: administered both pre- and post-injury; cited from earlier work

For `CC(C)c1c(C(=O)Nc2ccccc2)c(-c2ccccc2)c(-c2ccc(F)cc2)n1CC[C@@H](O)C[C@@H](O)CC(=O)O` [atorvastatin], the “Effect on HCV in an in vitro model of HCV infection” value (“Effect on HCV in an in vitro model” below) (hepatitis C virus (HCV)) is given as “anti-HCV effect” and the “Effect in spinal cord injury” value [1] is given as “promoting locomotion and tissue sparing, as well as reducing inflammation”.
In the case of `CC[C@H](C)C(=O)O[C@H]1C[C@@H](C)C=C2C=C[C@H](C)[C@H](CC[C@@H]3C[C@@H](O)CC(=O)O3)[C@H]21` [lovastatin], the “Effect on HCV in an in vitro model” value (hepatitis C virus (HCV)) is given as “anti-HCV effect”.
In the case of `O=C(O)C[C@H](O)C[C@H](O)/C=C/c1c(C2CC2)nc2ccccc2c1-c1ccc(F)cc1` [pitavastatin], the “Effect on HCV in an in vitro model” value (hepatitis C virus (HCV)) is listed as “anti-HCV effect”.
